Data: paper PMC10363979, “Effects of bergapten on the pharmacokinetics of macitentan in rats both in vitro and in vivo” (Frontiers in Pharmacology, 2023)
Like-named read-outs stand apart in the source and are kept apart here.

Key:
[1] = tested on: Rat liver microsomes (RLMs); assay: Inhibition of macitentan metabolism (ACT-132577 formation) by bergapten and Michaelis-Menten kinetics in rat liver microsomes; format: in vitro ADME; settings: RLMs
Description: (§1) The concentrations of macitentan and ACT-132577 were determined by UPLC-MS/MS, which consisted of an Acquity I-class UPLC system (Waters Corp., Milford, MA, United States) and a Xevo TQD triple quadrupole mass spectrometer (Waters Corporation, Milford, MA, United States) equipped with an electrospray ionization source. Chromatographic separation was performed on an Acquity UPLC BEH C18 column (2.1 × 100 mm, 1.7 μm) at 40°C. The mobile phase was composed of acetonitrile (solvent A) and water containing 0.1% formic acid (solvent B, pH 2.74). The gradient condition of mobile phases was set with a flow rate of 0.4 mL/min as follows: 0–0.5 min, 20% A; 0.5–1 min, 70% A; 1–2 min, 95% A; 2–2.6 min, 20% A. Positive ion and selective multiple reaction monitoring (SRM) modes were used for quantitative analysis with the precursor to product ion transitions of m/z 588.9→203.4 for macitentan, 546.9→200.6 for ACT-132577, and 285.0→193.0 for diazepam. The cone voltage and collision voltage were 28V, 14 V for macitentan, 26V, 28 V for ACT-132577, and 35V, 30 V for diazepam. The mass spectrometry parameters of the source temperature, desolvation temperature, cone gas flow rate, and desolvation gas flow rate were 150°C, 500°C, 50 L/h, and 1000 L/h, respectively.
(§2) The effects of BP on macitetan metabolism in vitro were investigated using RLMs, HLMs, and rCYP3A4. And, the formation of ACT-132577 was considered as an indicator of inhibitory effect. The 200 μL incubation system contained NADPH (1 mM), potassium phosphate buffer (100mM, pH = 7.4), macitentan, BP, and RLMs (0.3 mg/mL), HLMs (0.2 mg/mL), or rCYP3A4 (0.13 mg/mL). Firstly, a series concentration of macitentan with 1, 2.5, 5, 10, 25, 50 and 100 μM were included in the reaction buffer to determine the Km and Vmax values. Then, a series concentration of BP following 0, 0.01, 0.1, 1, 5, 10, 50 and 100 μM were used for the determination of IC50 value of BP against macitentan. […] The system was pre-incubated at 37°C for 5 min, and 10 μL NADPH was added to initiate the reaction. After incubation for 30 min at 37°C, 200 μL ice-cold acetonitrile and 30 μL diazepam (500 ng/mL) were added to terminate the reaction. The samples were centrifuged at 13,000 rpm for 5 min, and the supernatant fraction (150 μL) was collected for UPLC-MS/MS analysis.

[2] = tested on: macitentan metabolism (formation of ACT-132577); assay: as above; format: in vitro ADME; settings: rat, rat liver microsomes, pH 7.4, probe macitentan; RLMs 0.3 mg/mL, 30 min, 37°C; read-out: IC50 of BP on macitentan metabolism
Description: as §1, §2

[3] = biological target: human liver microsomes (HLMs) (Homo sapiens, UniProt P08684); assay: Inhibition of macitentan metabolism (ACT-132577 formation) by bergapten and Michaelis-Menten kinetics in human liver microsomes; format: in vitro ADME
Description: as §1
as §2, with “After incubation for 30 min at 37°C, 200 μL ice-cold acetonitrile and 30 μL diazepam (500 ng/mL) were added to terminate the reaction. The samples were centrifuged at 13,000 rpm for 5 min, and the supernatant fraction (150 μL) was collected for UPLC-MS/MS analysis.” left out

[4] = biological target: macitentan metabolism (formation of ACT-132577) (Homo sapiens, UniProt P08684); assay: as above; format: in vitro ADME; settings: human, pH 7.4
Description: as §1
as §2, with “After incubation for 30 min at 37°C, 200 μL ice-cold acetonitrile and 30 μL diazepam (500 ng/mL) were added to terminate the reaction. The samples were centrifuged at 13,000 rpm for 5 min, and the supernatant fraction (150 μL) was collected for UPLC-MS/MS analysis.” left out

[5] = biological target: T1, recombinant human CYP3A4 (rCYP3A4) (Homo sapiens, UniProt P08684); assay: Inhibition of macitentan metabolism (ACT-132577 formation) by bergapten and Michaelis-Menten kinetics in recombinant human CYP3A4; format: in vitro ADME
T1 construct: made in house
Description: as §1
as §2, with “After incubation for 30 min at 37°C, 200 μL ice-cold acetonitrile and 30 μL diazepam (500 ng/mL) were added to terminate the reaction. The samples were centrifuged at 13,000 rpm for 5 min, and the supernatant fraction (150 μL) was collected for UPLC-MS/MS analysis.” left out

[6] = Plasma Cmax of bergapten in rat (literature); format: in vivo; settings: 3 mg/kg bergapten, converted from ng/mL, ref Li et al, 2014
[7] = set-up: method as in Li et al, 2014; settings: rat, 3 mg/kg bergapten; ref Li et al, 2014; cited from earlier work
[8] = Pharmacokinetic interaction between BP and macitentan in rats (plasma macitentan and ACT-132577); format: in vivo, Sprague-Dawley rats; settings: for Cmax / Tmax / AUC(0-inf) / AUC(0-t) / CL/F / MRT last / MRT inf / half-life: Sprague-Dawley, rat, plasma, po, 20 mg/kg, macitentan in plasma, macitentan 20 mg/kg oral; for CL/F: read-out: CLz/F (converted); for MRT last: read-out: MRT(0-t); for MRT inf: read-out: MRT(0-∞); for half-life: read-out: t1/2z (converted)
Description: as §1
Twelve Sprague-Dawley rats were randomly assigned to two groups. BP (10 mg/kg) was continuously administered daily to rats in the experimental group for 7 days, whereas the 0.5% CMC-Na was orally administered once a day to rats in the control group. Rats were fasted overnight before dosing, with free access to water. Macitentan (20 mg/kg) was intragastrically administered 30 min after the last dose of BP or 0.5% CMC-Na on the seventh day. Blood samples (300 μL) were collected from the tail vein into 1.5 mL Eppendorf tubes containing 10 μL heparin sodium at the time points of 0.083, 0.25, 0.5, 1, 2, 3, 4, 6, 8, 12, 24, and 36 h after macitentan administration. Plasma was obtained after centrifugation of the blood samples at 4,000 rpm for 10 min and stored at −80°C for further analysis. Before UPLC-MS/MS analysis, 100 μL plasma was mixed with 200 μL acetonitrile and 30 μL diazepam (500 ng/mL) and then fractionated at 13,000 rpm for 5 min at 4°C. A 150 μL sample of the supernatant was collected for analysis.
All assays were performed in triplicate, and the results are expressed as mean ± standard deviation. The pharmacokinetic parameters of elimination half-life (t1/2), area under the plasma concentration-time curve (AUC), maximal plasma concentration (Cmax), time to peak plasma concentration, plasma clearance (CLz/F), apparent volume of distribution, and mean residence time were calculated using a non-compartment model with DAS software (version 3.2.8, Lishui People’s Hospital, China). Data analysis, statistical comparisons, and graphs were generated using GraphPad Prism software (version 7.0; GraphPad Software Inc., San Diego, CA, United States). Student’s t-test of variance following the least significant difference method was used for comparisons between the control and experimental groups. Statistical significance was set at p < 0.05.

[9] = Stability of macitentan and ACT-132577 in rat plasma (UPLC-MS/MS method validation); format: in vitro ADME
Description: as §1
Method validation, including accuracy, precision, recovery, matrix effects and stability, was conducted in accordance with the guidelines of the FDA and the European Medicines Agency.

[10] = tested on: ET receptor; set-up: method as in Iglarz et al, 2008; settings: ref Iglarz et al, 2008, cited from earlier work; for Pharmacological activity of metabolite: Figure 1
[11] = cited from earlier work
[12] = Inhibition of macitentan metabolism (ACT-132577 formation) by bergapten and Michaelis-Menten kinetics in rat liver microsomes; format: in vitro ADME; settings: rat, rat liver microsomes, pH 7.4; RLMs
Description: as §1, §2

[13] = set-up: method as in Sidharta et al, 2015; settings: estimated; ref Sidharta et al, 2015; cited from earlier work
[14] = single dose macitentan, ref Atsmon et al, 2013
[15] = control group (0.5% CMC-Na 7 days)
[16] = experimental group (BP 10 mg/kg daily 7 days)
[17] = with BP 10 mg/kg vs without, p < 0.05

T1 sequence (P08684 whole entry): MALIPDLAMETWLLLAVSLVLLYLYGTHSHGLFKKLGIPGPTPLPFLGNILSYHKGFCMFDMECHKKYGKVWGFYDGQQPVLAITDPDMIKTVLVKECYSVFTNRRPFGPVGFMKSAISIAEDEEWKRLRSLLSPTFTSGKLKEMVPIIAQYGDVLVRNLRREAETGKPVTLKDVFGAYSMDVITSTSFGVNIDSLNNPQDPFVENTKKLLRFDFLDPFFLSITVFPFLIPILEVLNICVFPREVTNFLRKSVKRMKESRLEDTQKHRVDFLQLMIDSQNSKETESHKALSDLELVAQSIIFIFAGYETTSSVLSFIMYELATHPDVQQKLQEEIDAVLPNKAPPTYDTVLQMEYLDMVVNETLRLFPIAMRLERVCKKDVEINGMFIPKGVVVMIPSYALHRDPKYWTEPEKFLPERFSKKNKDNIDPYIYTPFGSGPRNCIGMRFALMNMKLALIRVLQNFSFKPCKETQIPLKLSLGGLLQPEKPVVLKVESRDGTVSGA
Sequence of human liver microsomes (HLMs) (P08684 2-503): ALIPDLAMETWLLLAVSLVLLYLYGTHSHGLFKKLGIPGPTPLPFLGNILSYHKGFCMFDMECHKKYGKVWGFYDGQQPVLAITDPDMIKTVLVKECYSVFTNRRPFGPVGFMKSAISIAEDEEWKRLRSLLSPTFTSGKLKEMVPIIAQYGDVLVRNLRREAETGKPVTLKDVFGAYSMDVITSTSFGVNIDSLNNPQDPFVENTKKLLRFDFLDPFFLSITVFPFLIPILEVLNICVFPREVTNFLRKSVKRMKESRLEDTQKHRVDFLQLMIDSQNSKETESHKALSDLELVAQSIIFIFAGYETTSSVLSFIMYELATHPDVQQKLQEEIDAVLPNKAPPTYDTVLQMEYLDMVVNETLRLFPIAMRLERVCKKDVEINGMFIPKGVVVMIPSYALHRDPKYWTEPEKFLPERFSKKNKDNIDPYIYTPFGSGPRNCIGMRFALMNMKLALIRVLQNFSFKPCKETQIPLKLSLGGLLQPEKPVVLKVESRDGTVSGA
Sequence of macitentan metabolism (formation of ACT-132577) (Homo sapiens, UniProt P08684) (P08684 2-503): as above

## COc1c2ccoc2cc2oc(=O)ccc12 [BP, 5-methoxypsoralen]
[1]
  Inhibition mechanism (Lineweaver-Burk): competitive inhibition
[1]; competitive inhibition, read-out: Ki of BP on macitentan metabolism
  Ki: 1.39 µM
[2]
  IC50 at 30 min: 3.84 µM
[3]; HLMs
  Inhibition mechanism (Lineweaver-Burk): competitive inhibition
[3]; human, microsomes
  Ki: 0.12 µM
[4]
  IC50 at 30 min: 17.8 µM
[5]; rCYP3A4
  Inhibition mechanism (Lineweaver-Burk): competitive inhibition
[5]; rCYP3A4 0.13 mg/mL, 30 min, 37°C, read-out: IC50 of BP on macitentan metabolism
  IC50: 12.8 µM
[5]; read-out: Ki of BP on macitentan metabolism
  Ki: 5.06 µM
[6]
  Cmax: ~2100 nM
[7]
  Cmax: around 447.72 ± 30.61 ng/mL

## NS(=O)(=O)Nc1ncnc(OCCOc2ncc(Br)cn2)c1-c1ccc(Br)cc1 [ACT-132577]
[8]; with BP 10 mg/kg vs without, p > 0.05
  Difference in pharmacokinetic parameters, experimental vs control group: no significant differences
[9]; 4°C, 24 h, 30 ng/mL
  Stability RE (%): 106.81%
[9]; 4°C, 24 h, 900 ng/mL
  Stability RE (%): 104.77%
[9]; 4°C, 24 h, 9000 ng/mL
  Stability RE (%): 105.28%
[9]; Room temperature, 6 h, 30 ng/mL
  Stability RE (%): 109.84%
[9]; Room temperature, 6 h, 900 ng/mL
  Stability RE (%): 106.18%
[9]; Room temperature, 6 h, 9000 ng/mL
  Stability RE (%): 107.44%
[9]; −80°C, 7days, 30 ng/mL
  Stability RE (%): 105.76%
[9]; −80°C, 7days, 900 ng/mL
  Stability RE (%): 107.26%
[9]; −80°C, 7days, 9000 ng/mL
  Stability RE (%): 103.40%
[10]
  Pharmacological activity of metabolite: Active
[10]; antagonism of the ET receptor
  Potency relative to macitentan (less potent): approximately five-fold
[11]; ref Bruderer et al, 2012b
  Change in exposure in the presence of rifampin: no significant change
[11]; ref Huppertz et al, 2018
  Concentrations when macitentan coadministered with St. John’s Wort: unaltered
[11]; [14]
  Exposure decrease in the presence of ketoconazole: 26%

## CCCNS(=O)(=O)Nc1ncnc(OCC(=O)O)c1-c1ccc(Br)cc1 [ACT-373898]
[10]
  Pharmacological activity of metabolite: Inactive

## CCCNS(=O)(=O)Nc1ncnc(OCCOc2ncc(Br)cn2)c1-c1ccc(Br)cc1 [macitentan]
[12]
  Km at 30 min: 4.82 µM
[1]
  Vmax of macitentan metabolism: 0.50 nmol/min/mg protein
[8]; control group
  Cmax: 1340 ng/mL
  Tmax: 1.92 ± 0.8 h
  CL/F: 43.3 mL/min/kg
  MRT last: 5.48 ± 0.96 h
  MRT inf: 5.6 ± 1.08 h
  half-life: 4.53 ± 0.9 h
[8]; [15]
  AUC(0-inf): 7900 ng·h/mL
  AUC(0-t): 7870 ng·h/mL
[8]; [16]
  AUC(0-inf): 20400 ng·h/mL
  AUC(0-t): 20300 ng·h/mL
  Cmax: 3000 ng/mL
  Tmax: 2.5 ± 0.55 h
  CL/F: 17.8 mL/min/kg
  MRT last: 5.91 ± 0.74 h
  MRT inf: 6.12 ± 0.8 h
  half-life: 5.07 ± 1.15 h
[8]; with BP 10 mg/kg vs without
  CLz/F decreased by, experimental vs control group: 0.59 fold
[8]; [17]
  AUC(0-t) enhanced by, experimental vs control group: 1.57 fold
  AUC(0-∞) enhanced by, experimental vs control group: 1.58 fold
  Cmax enhanced by, experimental vs control group: 1.24 fold
[9]; 4°C, 24 h, 4 ng/mL
  Stability RE (%): 107.57%
[9]; 4°C, 24 h, 160 ng/mL
  Stability RE (%): 104.86%
[9]; 4°C, 24 h, 1,600 ng/mL
  Stability RE (%): 106.50%
[9]; Room temperature, 6 h, 4 ng/mL
  Stability RE (%): 113.51%
[9]; Room temperature, 6 h, 160 ng/mL
  Stability RE (%): 109.43%
[9]; Room temperature, 6 h, 1,600 ng/mL
  Stability RE (%): 105.63%
[9]; −80°C, 7days, 4 ng/mL
  Stability RE (%): 104.39%
[9]; −80°C, 7days, 160 ng/mL
  Stability RE (%): 103.80%
[9]; −80°C, 7days, 1,600 ng/mL
  Stability RE (%): 105.44%
[13]
  oral bioavailability: 74%
[11]; ref Bruderer et al, 2012b
  Exposure reduction in the presence of rifampin: four-fold
[11]; ref Huppertz et al, 2018
  Exposure reduced to, coadministered with St. John’s Wort: approximately half
[11]; [14]
  Exposure increase in the presence of ketoconazole: approximately two-fold
